Here are results for 17 compounds from ChEMBL document CHEMBL3425492, “Dual high-resolution α-glucosidase and radical scavenging profiling combined with HPLC-HRMS-SPE-NMR for identification of minor and major constituents directly from the crude extract of Pueraria lobata” (J Nat Prod, 2015).

Structures are written as SMILES. The source made the active and inactive calls. The rule behind the calls is not given here.

Data set [1] is described as follows: Antioxidant activity of the compound assessed as inhibition of ABTS radicals after 20 mins by spectrophotometric analysis. It is filed as physicochemical.
For another data set, the system named is Saccharomyces cerevisiae. Description: Inhibition of Saccharomyces cerevisiae alpha-glucosidase type 1 assessed as 4-nitrophenol cleavage product by high-resolution biochromatogram.

As to `COc1cc(-c2coc3cc(O[C@@H]4O[C@H](CO)[C@@H](O)[C@H](O)[C@H]4O)ccc3c2=O)ccc1O`, the “inhibition (INH)” value in data set [1] was “Not Active”. Turning to `COc1cc(-c2coc3cc(O[C@@H]4O[C@H](COC(=O)CC(=O)O)[C@@H](O)[C@H](O)[C@H]4O)ccc3c2=O)ccc1O`, in data set [1], the “inhibition (INH)” value is listed as “Not Active”.

`O=c1c(-c2ccc(O[C@@H]3O[C@H](CO)[C@@H](O)[C@H](O)[C@H]3O)cc2)coc2cc(O)ccc12`: the “inhibition (INH)” value in data set [1] is on record as “Not Active”. Regarding `O=C(O)CC(=O)OC[C@H]1O[C@@H](Oc2cc(O)c3c(=O)c(-c4ccc(O)cc4)coc3c2)[C@H](O)[C@@H](O)[C@@H]1O`, in the data set on Saccharomyces cerevisiae, the result was Active. Also, the “inhibition (INH)” value in data set [1] was “Not Active”. As to `COc1ccc(-c2coc3cc(O)ccc3c2=O)cc1` [FORMONONETIN], the “inhibition (INH)” value in data set [1] is on record as “Not Active”.

As to `COc1ccc(-c2coc3cc(O[C@@H]4O[C@H](CO)[C@@H](O)[C@H](O)[C@H]4O)cc(O)c3c2=O)cc1`, the “inhibition (INH)” value in data set [1] is listed as “Not Active”. The same measure, in the same setting: the value for `O=c1c(-c2ccc(O)cc2)coc2cc(O)cc(O)c12` [GENISTEIN] was “Not Active”.

For the compound `O=c1c(-c2ccc(O)cc2)coc2cc(O[C@@H]3O[C@H](CO)[C@@H](O)[C@H](O)[C@H]3O)ccc12` [DAIDZIN], in the data set with Saccharomyces cerevisiae, the outcome was Active. In addition, the “inhibition (INH)” value in data set [1] was “Not Active”. For `O=c1c(-c2ccc(O)cc2)coc2c([C@@H]3O[C@H](CO)[C@@H](O)[C@H](O)[C@H]3O)c(O)ccc12` [PUERARIN] the same measures were “Active” and “Not Active”. As to `O=Cc1c(-c2ccc(O)cc2O)oc2cc(O)ccc12`, in data set [1], the “inhibition (INH)” value was “Active”. In the case of `COc1ccc(C2=CC(=O)O[C@H]2Cc2ccc(O)cc2)c(O[C@@H]2O[C@H](CO)[C@@H](O)[C@H](O)[C@H]2O)c1`, the result in the data set with Saccharomyces cerevisiae was Active. Also, in data set [1], the “inhibition (INH)” value is recorded as “Not Active”. For `O=C(O)CC(=O)OC[C@H]1O[C@@H](Oc2ccc3c(=O)c(-c4ccc(O)cc4)coc3c2)[C@H](O)[C@@H](O)[C@@H]1O` the same measures were “Active” and “Not Active”. As for `COc1ccc(-c2coc3cc(O[C@@H]4O[C@H](COC(=O)CC(=O)O)[C@@H](O)[C@H](O)[C@H]4O)cc(O)c3c2=O)cc1`, in data set [1], the “inhibition (INH)” value is “Not Active”.

`COc1ccc(-c2coc3cc(O[C@@H]4O[C@H](COC(=O)CC(=O)O)[C@@H](O)[C@H](O)[C@H]4O)ccc3c2=O)cc1`: the “inhibition (INH)” value in data set [1] is reported as “Not Active”. For the compound `O=c1c(-c2ccc(O)cc2)coc2cc(O[C@@H]3O[C@H](CO)[C@@H](O)[C@H](O)[C@H]3O)cc(O)c12` [GENISTIN], in the data set with Saccharomyces cerevisiae, the outcome was Active. Further, the “inhibition (INH)” value in data set [1] is recorded as “Not Active”.

Turning to `COc1ccc(-c2coc3cc(O[C@@H]4O[C@H](CO)[C@@H](O)[C@H](O)[C@H]4O)ccc3c2=O)cc1` [ONONIN], the “inhibition (INH)” value in data set [1] is recorded as “Not Active”. `O=c1c(-c2ccc(O)cc2)coc2cc(O)ccc12` [DAIDZEIN]: the result in the data set on Saccharomyces cerevisiae was Active. Also, in data set [1], the “inhibition (INH)” value is “Active”.
